Experimental data from patent US7902371B2, “(1S,5S)-3-(5,6-dichloropyridin-3-yl)-3,6-diazabicyclo[3.2.0]heptane benzenesulfonate” (Abbott Laboratories, priority 2004, dated 2011).

Assays:
Type in all cases: physicochemical
[1] = thermodynamic based polymorph screen; conditions: for new crystal forms / polymorphs detected: besylate suspended in different solvents, three months
Method: A thermodynamic based polymorph screen was conducted with crystalline (1S,5S)-3-(5,6-dichloropyridin-3-yl)-3,6-diazabicyclo[3.2.0]heptane benzenesulfonate. The benzenesulfonate salt was suspended in different solvents including water, ethanol, acetonitrile, methanol, N,N-dimethylformamide, ethyl acetate, 1,4-dioxane, chloroform, pyridine, nitromethane, PEG 400 and […] water/methanol. […] This difference between the benzenesulfonate and 4-methylbenzenesulfonate salts is unexpected considering the structural similarities of the two acids. The lack of different physical forms is an advantage to chemical and physical processing operations.

[2] = hygroscopicity (relative humidity adsorption/desorption isotherms); conditions: relative to acetate, citrate, maleate, methanesulfonate, 4-methylbenzenesulfonate and sulfate salts, FIGS. 1-7
Method: Relative humidity isotherms were collected using a VTI SGA-100 Symmetric Vapor Sorption Analyzer. About 2 to 30 mg of sample is added to the system. The relative humidity is held constant at each step until a constant weight equilibrium is achieved or a maximum of six hours per step.

[3] = solid state stability at 40° C. in the dark at 75% relative humidity; conditions: 75% RH
Method: Crystalline (1S,5S)-3-(5,6-dichloropyridin-3-yl)-3,6-diazabicyclo[3.2.0]heptane benzenesulfonate was tested for solid state stability at 40° C. in the dark at 75% relative humidity.

[4] = intrinsic dissolution rate at 37° C.

Cc1ccc(S(=O)(=O)O)cc1.Clc1cc(N2C[C@@H]3CN[C@@H]3C2)cnc1Cl [4-methylbenzenesulfonate salt, (1S,5S)-3-(5,6-dichloropyridin-3-yl)-3,6-diazabicyclo[3.2.0]heptane 4-methylbenzenesulfonate]
unique crystal forms isolated/characterized [1]: three unique crystal forms
new crystal forms / polymorphs detected [1]: multiple polymorphs were discovered

Clc1cc(N2C[C@@H]3CN[C@@H]3C2)cnc1Cl.O=S(=O)(O)c1ccccc1 [(1S,5S)-3-(5,6-dichloropyridin-3-yl)-3,6-diazabicyclo[3.2.0]heptane Benzenesulfonate]
hygroscopicity [2]: lower hygroscopicity relative to other salts
unique crystal forms isolated/characterized [1]: only one
new crystal forms / polymorphs detected [1]: No new crystal forms were detected
% remaining ([3]; 0 week): 99.72 ± 0.56%
% remaining ([3]; 1 week): 100.66 ± 0.51%
% remaining ([3]; 2 week): 99.47 ± 1.72%
% remaining ([3]; 4 week): 100.22 ± 0.59%
% remaining ([3]; 6 week): 100.53 ± 0.20%
% remaining ([3]; 8 week): 100.93 ± 0.37%
% remaining ([3]; 12 week): 100.84 ± 0.47%
intrinsic dissolution rate ([4]; pH 1.0): 8.5 mg/min·cm^2
intrinsic dissolution rate ([4]; pH 6.8): 10.1 mg/min·cm^2

O=C(O)[C@H](O)[C@@H](O)C(=O)O [(L)-tartrate]
new crystal forms / polymorphs detected [1]: multiple polymorphs were discovered

Clc1cc(N2C[C@@H]3CN[C@@H]3C2)cnc1Cl.O=S(=O)(O)O [sulfate, (1S,5S)-3-(5,6-dichloropyridin-3-yl)-3,6-diazabicyclo[3.2.0]heptane sulfate]
new crystal forms / polymorphs detected [1]: multiple polymorphs were discovered
